pIC50: −log10 of the molar value. In brackets after ≈: the same amount, converted by molar mass. Where two headings read alike, the source gives them in different places.
How the values were obtained:
adenosine deaminase = molecular target: T1, adenosine deaminase (Bos taurus, UniProt P56658); assay: Enzyme-inhibitory activity against adenosine deaminase (optical density at 265 nm); type: biochemical
T1 construct: purchased Sigma Chemical Type VI
T1 sequence (P56658 1-363): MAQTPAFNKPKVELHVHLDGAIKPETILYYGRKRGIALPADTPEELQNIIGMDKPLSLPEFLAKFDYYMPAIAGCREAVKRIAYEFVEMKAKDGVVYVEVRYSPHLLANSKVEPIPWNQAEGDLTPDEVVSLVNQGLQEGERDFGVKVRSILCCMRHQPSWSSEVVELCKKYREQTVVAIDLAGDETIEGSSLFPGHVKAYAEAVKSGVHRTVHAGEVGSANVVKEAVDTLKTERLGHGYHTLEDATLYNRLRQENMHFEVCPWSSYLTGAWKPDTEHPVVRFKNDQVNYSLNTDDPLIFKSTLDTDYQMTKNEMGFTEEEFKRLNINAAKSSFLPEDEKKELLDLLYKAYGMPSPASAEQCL
Protocol: The test of evaluating the inhibitory activity of each of the compounds against adenosine deaminase was carried out as given below.
Optical density of the reaction mixture obtained was measured with time (measured at the wave length of 265 nm), and the IC50 value of the tested compound against adenosine deaminase was calculated on the basis of decreases in the measured values of the optical density.

[1] = Stability in aqueous hydrochloric acid solution (pH 2), followed by thin-layer silica gel chromatography; type: physicochemical; conditions: water acidified with hydrochloric acid, pH 2, 25°C
Protocol: The test was carried out in accordance with the following method.
An aqueous solution (pH 2) of the test compound dissolved in water as acidified with hydrochloric acid was kept at 25°C, from which samples were taken out with time for analizing by thin-layer silica gel chromatography using acetonitrile-0.2 M aqueous ammonium chloride (3:1) as the development solvent. The spot of the test compound on the silica gel thin-layer was detected by using UV method, staining tests with conc. sulfuric acid and coloring tests with aqueous ammonium molybdate sulfuric acid solution, in combination, whereby the time (in hour) required for the test compound to disappear completely in the aqueous hydrochloric acid solution was determined. By way of comparison, coformycin and pentostatin were also tested by the same method.

mice [2] = conditions: intravenous administration, cited from earlier work
Escherichia coli = assay: Antibacterial activity of formycin A against Escherichia coli on bouillon-agar medium, with and without test compound; type: cell-based; conditions: for growth of Escherichia coli where test compound had permeated medium containing formycin A: test compound 1 mcg/ml, formycin A 100 mcg/ml in bouillon-agar medium, about 37°C
Protocol: In this test, an aqueous solution of each of the compounds to be tested, i.e. FCF, e-FCF, Ara-FCF or Ara-e-FCF, at a concentration of 1 mcg/ml, was added in the form of several drops on the surface of a bouillon-agar medium containing formycin A at a concentration of 100 mcg/ml to form a circular film of the said aqueous solution thereon. Then, the medium was allowed to stand to make the test compound permeate into the bouillon-agar layer. Subsequently, a strain of Escherichia coli was inoculated on the overall surface of said medium and the inoculated medium was incubated at about 37°C.

[3] = system: Providencia rettgeri GN466; assay: Minimum growth-inhibitory concentration, standard serial dilution assay; type: cell-based
Protocol: (§1) That is, a test was conducted to measure the minimum growth-inhibitory concentrations (MIC, mcg/ml) of these compounds against some microorganisms using a standard serial dilution assay method.

Providencia sp. 2991 = assay: as above; type: cell-based
Protocol: as §1

mice [4] = assay: Acute toxicity in mice, intraperitoneal administration; type: in vivo; conditions: 100 mg/kg
[5] = phosphate buffer 0.05 M, pH 7.4, 25°C, 5 minutes pre-incubation, substrate adenosine, read-out: Enzyme-inhibitory activity, IC50

Row | SMILES | Time (hours) required for complete disappearance of test compound in aqueous solution at pH 2 at 25°C [1] | pIC50 (adenosine deaminase; [5]) | growth of Escherichia coli where test compound had permeated medium containing formycin A (Escherichia coli) | further results
1 | OC[C@H]1O[C@@H](n2cnc3c2N=CNC[C@H]3O)[C@H](O)[C@@H]1O [Coformycin, (8R)-3-(β-D-ribofuranosyl)-3,6,7,8-tetrahydroimidazo[4,5-d][1,3]diazepin-8-ol] | 10 hours |  |  | pIC50 (adenosine deaminase): 8.77; acute toxicity (death of mice) (mice [2]; 12.5 mg/kg): cause the death of mice
2 | OC[C@H]1O[C@@H](n2cnc3c2N=CNC[C@H]3O)[C@H](F)[C@@H]1O [FCF, (8R)-3-(2-deoxy-2-fluoro-β-D-ribofuranosyl)-3,6,7,8-tetrahydroimidazo [4,5-d][1,3]diazepin-8-ol] | 15 hours | 7.77 | the bacteria could not grow to form the circular inhibition zone | 
3 | OC[C@H]1O[C@@H](n2cnc3c2NC=NC[C@H]3O)C[C@@H]1O [Pentostatin, 2'-deoxycoformycin, reference compound] | 1 hours |  |  | acute toxicity (body weight of tested mice) (mice [2]; 25 mg/kg): cause the decrease in the body weight of tested mice
4 | NC1O[C@H](CO)[C@@H](O)[C@@H]1F (stereo partly drawn) [2-deoxy-2-fluoro-α,β-D-arabinofuranosyl amine] |  |  |  | MIC [3]: 50 µg/mL (≈ 331 µM); MIC (Providencia sp. 2991): 100 µg/mL (≈ 662 µM)
5 | OC[C@H]1O[C@@H](n2cnc3c2N=CNC[C@H]3O)[C@@H](F)[C@@H]1O [Ara-FCF, (8R)-3-(2-deoxy-2-fluoro-β-D-arabinofuranosyl)-3,6,7,8-tetrahydroimidazo [4,5-d][1,3]diazepin-8-ol] | 15 hours | 9.11 | the bacteria could not grow to form the circular inhibition zone | acute toxicity (death of mice) (mice [4]): no death of the mice
6 | NC1O[C@H](CO)[C@@H](O)[C@H]1F (stereo partly drawn) [2-deoxy-2-fluoro-α,β-D-ribofuranosyl amine] |  |  |  | MIC [3]: 50 µg/mL (≈ 331 µM); MIC (Providencia sp. 2991): 100 µg/mL (≈ 662 µM)
7 | OC[C@H]1O[C@@H](n2cnc3c2N=CNC[C@@H]3O)[C@@H](F)[C@@H]1O [Ara-e-FCF, (8S)-3-(2-deoxy-2-fluoro-β-D-arabinofuranosyl)-3,6,7,8-tetrahydroimidazo[4,5-d][1,3]diazepin-8-ol] |  | 5.66 | the bacteria could not grow to form the circular inhibition zone | 
8 | OC[C@H]1O[C@@H](n2cnc3c2N=CNC[C@@H]3O)[C@H](F)[C@@H]1O [e-FCF, (8S)-3-(2-deoxy-2-fluoro-β-D-ribofuranosyl)-3,6,7,8-tetrahydroimidazo [4,5-d][1,3]diazepin-8-ol] |  | 7.00 | the bacteria could not grow to form the circular inhibition zone | 
9 | Nc1ncnc2c([C@@H]3O[C@H](CO)[C@@H](O)[C@H]3O)n[nH]c12 [formycin A] |  |  |  | antibacterial activity against Escherichia coli (Escherichia coli; formycin A alone at 100 mcg/ml): no antibacterial activity

From patent EP0643069B1, “2'-DEOXY-2'-FLUOROCOFORMYCIN AND STEREOISOMERS THEREOF” (priority 1991, dated 1993)
